Values of other authors in patent publication US20050032747A1, “COX-2 and FAAH inhibitors” (priority 2003, published 2005).

Test system: prostaglandin synthesis
Details: reported by Shen et al. 1977

Cc1c(CC(=O)O)c2cc(O)ccc2n1C(=O)c1ccc(Cl)cc1 [desmethylindomethacin, O-desmethylindomethacin]
ability to inhibit prostaglandin synthesis: some ability to inhibit prostaglandin synthesis
